The source of these data is patent US12029816B2, “Compositions and methods of making brittle-matrix particles through blister pack freezing” (BOARD OF REGENTS, THE UNIVERSITY OF TEXAS SYSTEM, priority 2010, dated 2024).

For this series the following is noted: pH 7.4.

Experimental: HFA-exposed TFF ITZ powder (1 mg) was added to 50 mL of dissolution media to yield an initial drug loading of 20 μg/mL. Sample aliquots (1.5 mL) were taken from the dissolution vessels at various time points. The aliquots were filtered immediately using a 0.2 μm syringe filter. […] TFF ITZ powder that had been previously exposed to HFA 227 (1 mg) was added to the dissolution media (50 mL) to achieve an initial loading of 20 μg ITZ/mL. All samples were filtered with 0.2 μm pore size filters.

On to `CCC(C)n1ncn(-c2ccc(N3CCN(c4ccc(OCC5COC(Cn6cncn6)(c6ccc(Cl)cc6Cl)O5)cc4)CC3)cc2)c1=O` (stereo not shown) [crystalline ITZ, itraconazole], for which the equilibrium solubility came to 1.4 µg/mL.
